Assay results as given in PubChem BioAssay (NCI).
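Assay format: 96-well plates, 48-hour exposure. At the TGI there is no net growth.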

Tests used:
Test in all cases: inhibition of tumour cell growth, NCI panel, 48 h
SNB-75 CNS = tested on: SNB-75 CNS
HOP-62 NSCLC = tested on: HOP-62 NSCLC
COLO 205 colon = tested on: COLO 205 colon
A549 NSCLC = tested on: A549 NSCLC
M14 melanoma = tested on: M14 melanoma
K-562 leukemia = tested on: K-562 leukemia
CCRF-CEM leukemia = tested on: CCRF-CEM leukemia
SK-MEL-28 melanoma = tested on: SK-MEL-28 melanoma
RPMI-8226 leukemia = tested on: RPMI-8226 leukemia
IGROV1 ovarian = tested on: IGROV1 ovarian
SW-620 colon = tested on: SW-620 colon
MDA-MB-435 = tested on: MDA-MB-435
MCF7 breast = tested on: MCF7 breast
786-0 renal = tested on: 786-0 renal
U251 CNS = tested on: U251 CNS
SR leukemia = tested on: SR leukemia
MOLT-4 leukemia = tested on: MOLT-4 leukemia
CAKI-1 renal = tested on: CAKI-1 renal
SK-MEL-2 melanoma = tested on: SK-MEL-2 melanoma
MALME-3M melanoma = tested on: MALME-3M melanoma
SF-268 CNS = tested on: SF-268 CNS
NCI-H23 lung = tested on: NCI-H23 lung
UACC-62 melanoma = tested on: UACC-62 melanoma
HL-60(TB) leukemia = tested on: HL-60(TB) leukemia
NCI-H460 lung = tested on: NCI-H460 lung
T-47D breast = tested on: T-47D breast
RXF 393 renal = tested on: RXF 393 renal
SK-MEL-5 melanoma = tested on: SK-MEL-5 melanoma
HOP-92 NSCLC = tested on: HOP-92 NSCLC
NCI/ADR-RES ovarian = tested on: NCI/ADR-RES ovarian
OVCAR-4 ovarian = tested on: OVCAR-4 ovarian
ACHN renal = tested on: ACHN renal
SK-OV-3 ovarian = tested on: SK-OV-3 ovarian

Measured: TGI

C=CCN1C(=O)CS/C1=N/NC(=O)C(O)(c1ccccc1)c1ccccc1
> 10 µM: all assays above
